# Measurements from patent US20190152946A1, “Novel Compounds” (GlaxoSmithKline Intellectual Property Development Limited, priority 2016, published 2019).
# Legend:
# Format in all cases: cell-based
# RPS6KA1 = biological target: T1, RPS6KA1 (Homo sapiens, UniProt Q15418); test: Expression proteomics in THP-1 cells, RPS6KA1 level; conditions: RPS6KA1 protein log2 fold change, 24 h, 1.0 μM
# T1 construct: endogenous in cells; host or cells: THP-1
# Procedure: (§1) THP-1 cells were seeded at a concentration of 3×10^6 cells in T175 flasks with 60 mL growth medium (RPM11640+10% FBS). […] of a 10× compound solution prepared in growth medium (DMSO), IAP PROTAC) was added and the cells were treated for the indicated time points (6 or 24 h) at 37° C., 5% CO2. For harvesting the cells were collected into falcon tubes on ice, centrifuged and washed twice in cold PBS (Life technologies). After the last washing step the supernatant was removed and the pellets were snap-frozen in liquid N2 and stored at −80° C. and lysed in 2% SDS for 3 min at 95° C. in a thermomixer (Thermo Fisher Scientific), followed by digestion of DNA with Benzonase at 37° C. for 1.5 h. Lysate was cleared by centrifugation an protein concentration in supernatant was determined by BCA assay.
# (§2) Leukemia 25, 89-100 (2011).
# (§3) Samples were dried in vacuo and resuspended in 0.05% trifluoroacetic acid in water. […]
# (§4) Reporter ion intensities were read from raw data and multiplied with ion accumulation times (the unit is milliseconds) so as to yield a measure proportional to the number of ions;
# (§5) Nat Biotech 29, 255-265 (2011). this measure is referred to as ion area Savitski, M. M. et al. Delayed Fragmentation and Optimized Isolation Width Settings for Improvement of Protein Identification and Accuracy of Isobaric Mass Tag Quantification on Orbitrap-Type Mass Spectrometers. […]
# PTK2B = biological target: T2, PTK2B (Homo sapiens, UniProt Q14289); test: Expression proteomics in THP-1 cells, PTK2B level; conditions: PTK2B protein log2 fold change, 24 h, 1.0 μM
# T2 construct: endogenous in cells; host or cells: THP-1
# Procedure: as §1, §2, §3, §4, §5
# MAPK9 = biological target: T3, MAPK9 (Homo sapiens, UniProt P45984); test: Expression proteomics in THP-1 cells, MAPK9 level; conditions: MAPK9 protein log2 fold change, 24 h, 1.0 μM
# T3 construct: endogenous in cells; host or cells: THP-1
# Procedure: as §1, §2, §3, §4, §5
# TEC = biological target: T4, TEC (Homo sapiens, UniProt P42680); test: Expression proteomics in THP-1 cells, TEC level; conditions: TEC protein log2 fold change, 24 h, 1.0 μM
# T4 construct: endogenous in cells; host or cells: THP-1
# T4 sequence (P42680 1-631): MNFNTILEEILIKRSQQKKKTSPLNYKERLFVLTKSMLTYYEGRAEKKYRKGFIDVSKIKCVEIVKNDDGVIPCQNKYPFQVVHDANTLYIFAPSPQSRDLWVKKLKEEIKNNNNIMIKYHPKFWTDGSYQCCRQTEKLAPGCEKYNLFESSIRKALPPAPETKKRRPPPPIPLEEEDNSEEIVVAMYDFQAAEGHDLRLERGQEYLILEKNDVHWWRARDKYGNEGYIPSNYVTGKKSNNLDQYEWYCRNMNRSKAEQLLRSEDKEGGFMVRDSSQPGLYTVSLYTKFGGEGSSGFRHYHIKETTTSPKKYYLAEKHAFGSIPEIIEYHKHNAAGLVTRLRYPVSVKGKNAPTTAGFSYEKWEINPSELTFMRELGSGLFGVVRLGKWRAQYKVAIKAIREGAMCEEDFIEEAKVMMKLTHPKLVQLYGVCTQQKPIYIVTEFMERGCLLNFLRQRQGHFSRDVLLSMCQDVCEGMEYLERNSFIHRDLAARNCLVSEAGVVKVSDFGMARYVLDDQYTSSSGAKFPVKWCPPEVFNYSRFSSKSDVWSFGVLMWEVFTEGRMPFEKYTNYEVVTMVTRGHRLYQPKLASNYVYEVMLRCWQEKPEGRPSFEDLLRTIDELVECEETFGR
# Procedure: as §1, §2, §3, §4, §5
# AKT2 = biological target: T5, AKT2 (Homo sapiens, UniProt P31751); test: Expression proteomics in THP-1 cells, AKT2 level; conditions: AKT2 protein log2 fold change, 24 h, 1.0 μM
# T5 construct: endogenous in cells; host or cells: THP-1
# Procedure: as §1, §2, §3, §4, §5
# T1 sequence (Q15418 whole entry): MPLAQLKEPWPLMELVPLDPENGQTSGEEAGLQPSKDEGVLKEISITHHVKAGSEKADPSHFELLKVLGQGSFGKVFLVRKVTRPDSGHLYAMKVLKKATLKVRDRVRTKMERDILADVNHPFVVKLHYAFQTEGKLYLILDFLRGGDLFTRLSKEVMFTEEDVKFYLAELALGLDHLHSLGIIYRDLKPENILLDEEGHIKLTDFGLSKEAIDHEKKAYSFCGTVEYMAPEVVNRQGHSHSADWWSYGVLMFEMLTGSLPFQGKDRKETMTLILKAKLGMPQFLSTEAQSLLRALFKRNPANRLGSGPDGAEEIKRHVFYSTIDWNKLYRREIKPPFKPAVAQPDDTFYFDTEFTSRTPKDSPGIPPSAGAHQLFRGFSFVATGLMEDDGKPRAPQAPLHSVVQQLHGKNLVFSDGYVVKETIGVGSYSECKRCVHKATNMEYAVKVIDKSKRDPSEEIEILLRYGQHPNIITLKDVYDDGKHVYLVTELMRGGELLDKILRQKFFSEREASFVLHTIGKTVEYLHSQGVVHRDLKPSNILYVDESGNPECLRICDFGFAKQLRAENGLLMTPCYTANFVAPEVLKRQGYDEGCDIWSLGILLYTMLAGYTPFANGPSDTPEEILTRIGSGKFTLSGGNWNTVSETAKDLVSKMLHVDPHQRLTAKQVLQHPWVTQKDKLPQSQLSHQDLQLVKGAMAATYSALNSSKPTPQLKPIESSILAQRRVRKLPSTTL
# T2 sequence (Q14289 whole entry): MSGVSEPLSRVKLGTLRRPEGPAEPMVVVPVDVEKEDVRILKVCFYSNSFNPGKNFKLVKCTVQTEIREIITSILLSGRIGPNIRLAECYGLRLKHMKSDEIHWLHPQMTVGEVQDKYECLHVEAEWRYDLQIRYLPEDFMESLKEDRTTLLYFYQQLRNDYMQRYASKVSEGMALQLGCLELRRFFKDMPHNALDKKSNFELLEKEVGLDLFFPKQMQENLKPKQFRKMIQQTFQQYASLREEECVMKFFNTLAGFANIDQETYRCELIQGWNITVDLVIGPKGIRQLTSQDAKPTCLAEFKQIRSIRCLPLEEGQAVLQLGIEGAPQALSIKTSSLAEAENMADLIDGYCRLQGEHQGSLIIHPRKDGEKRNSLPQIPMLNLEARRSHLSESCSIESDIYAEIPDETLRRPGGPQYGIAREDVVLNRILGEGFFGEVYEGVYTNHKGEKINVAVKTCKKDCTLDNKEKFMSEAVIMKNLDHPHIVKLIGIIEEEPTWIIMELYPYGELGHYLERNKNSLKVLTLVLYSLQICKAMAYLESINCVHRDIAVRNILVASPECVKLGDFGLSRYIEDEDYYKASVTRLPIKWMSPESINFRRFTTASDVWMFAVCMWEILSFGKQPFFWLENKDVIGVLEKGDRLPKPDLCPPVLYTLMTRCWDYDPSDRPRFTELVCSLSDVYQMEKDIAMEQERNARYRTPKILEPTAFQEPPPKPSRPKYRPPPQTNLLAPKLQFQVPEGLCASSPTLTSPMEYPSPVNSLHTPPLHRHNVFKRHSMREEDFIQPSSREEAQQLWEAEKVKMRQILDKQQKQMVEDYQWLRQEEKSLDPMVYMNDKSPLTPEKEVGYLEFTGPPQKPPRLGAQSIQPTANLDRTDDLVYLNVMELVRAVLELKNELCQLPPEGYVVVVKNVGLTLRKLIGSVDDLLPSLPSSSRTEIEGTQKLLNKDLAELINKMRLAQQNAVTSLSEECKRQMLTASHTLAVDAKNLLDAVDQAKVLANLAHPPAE
# T3 sequence (P45984 whole entry): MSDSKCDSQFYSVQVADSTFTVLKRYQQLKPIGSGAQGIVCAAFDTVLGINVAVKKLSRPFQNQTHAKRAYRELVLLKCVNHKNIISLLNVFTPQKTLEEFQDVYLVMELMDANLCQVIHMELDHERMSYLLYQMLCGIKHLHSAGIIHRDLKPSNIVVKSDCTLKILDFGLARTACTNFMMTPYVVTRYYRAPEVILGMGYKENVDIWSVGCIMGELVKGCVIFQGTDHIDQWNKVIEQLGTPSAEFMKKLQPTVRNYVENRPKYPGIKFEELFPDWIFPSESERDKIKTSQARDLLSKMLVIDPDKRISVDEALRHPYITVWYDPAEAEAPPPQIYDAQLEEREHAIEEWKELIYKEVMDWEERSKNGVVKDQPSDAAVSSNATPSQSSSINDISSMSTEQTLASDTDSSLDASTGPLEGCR
# T5 sequence (P31751 whole entry): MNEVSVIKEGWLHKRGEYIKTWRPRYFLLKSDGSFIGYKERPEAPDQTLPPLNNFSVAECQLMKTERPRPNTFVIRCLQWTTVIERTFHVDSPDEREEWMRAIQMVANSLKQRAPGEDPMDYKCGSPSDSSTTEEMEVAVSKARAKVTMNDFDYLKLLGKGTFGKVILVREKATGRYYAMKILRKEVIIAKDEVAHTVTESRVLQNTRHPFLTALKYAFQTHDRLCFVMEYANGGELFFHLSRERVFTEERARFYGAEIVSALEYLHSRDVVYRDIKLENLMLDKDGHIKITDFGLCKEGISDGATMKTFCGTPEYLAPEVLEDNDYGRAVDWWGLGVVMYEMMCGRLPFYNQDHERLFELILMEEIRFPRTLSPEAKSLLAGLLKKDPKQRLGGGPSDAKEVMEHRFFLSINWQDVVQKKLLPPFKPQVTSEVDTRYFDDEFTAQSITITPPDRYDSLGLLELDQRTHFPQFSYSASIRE
smiles,measurement,setting,value
"CNC(=O)c1ccccc1Nc1nc(Nc2ccc(N3CCN(CCOCCOCCOCCOc4ccc5c(c4)CN(C(=O)[C@@H](NC(=O)[C@H](C)NC)C(C)(C)C)[C@H](C(=O)N[C@@H]4CCCc6ccccc64)C5)CC3)cc2)ncc1Cl [IAP, (S)-7-(2-(2-(2-(2-(4-(4-((5-Chloro-4-((2-(methylcarbamoyl)phenyl)amino)pyrimidin-2-yl)amino)phenyl)piperazin-1-yl)ethoxy)ethoxy)ethoxy)ethoxy)-2-((S)-3,3-dimethyl-2-((S)-2-(methylamino)propanamido)butanoyl)-N-((R)-1,2,3,4-tetrahydronaphthalen-1-yl)-1,2,3,4-tetrahydroisoquinoline-3-carboxamide]",log2fc_IAP_24 h_1.0 μM_n1,RPS6KA1; replicate n1,−1.21
same,log2fc_IAP_24 h_1.0 μM_n2,RPS6KA1; replicate n2,−1.24
same,log2fc_IAP_24 h_1.0 μM_n1,PTK2B; replicate n1,−1.78
same,log2fc_IAP_24 h_1.0 μM_n2,PTK2B; replicate n2,−2.06
same,log2fc_IAP_24 h_1.0 μM_n1,MAPK9; replicate n1,−1.22
same,log2fc_IAP_24 h_1.0 μM_n2,MAPK9; replicate n2,−1.31
same,log2fc_IAP_24 h_1.0 μM_n1,TEC; replicate n1,−1.79
same,log2fc_IAP_24 h_1.0 μM_n2,TEC; replicate n2,−2.04
same,log2fc_IAP_24 h_1.0 μM_n1,AKT2; replicate n1,−1.01
same,log2fc_IAP_24 h_1.0 μM_n2,AKT2; replicate n2,−0.89.
